From patent publication US7417069B2, “Halogenated triptolide derivatives as immunomodulators and anticancer agents” (priority 2003, dated 2008) come the findings set out here.

Structures are written as SMILES. Entries after “also recorded” stand apart in the source; their conditions may differ.

Data set [1] relates to human T cell lymphoma (Jurkat) cells. Description: Cytotoxicity (MTT) assay. In kind it is cell-based. The settings on record: 24 h, in comparison with triptolide (FIG. 1). The method, then:
Test compounds were dissolved in DMSO at a concentration of 20 mM. Further dilutions were done in RPMI 1640 medium (GIBCO, Rockville, Md.) supplemented with 10% Fetal Calf Serum (HyClone Laboratories, Logan, Utah).
Cytotoxicity of the compounds was determined in a standard MTT assay using Cell Proliferation Kit I (#1 465 007, Roche Diagnostics, Mannheim, Germany). Briefly, human T cell lymphoma (Jurkat) cells (4×10^5 per well) were cultured for 24 h, in 96-well tissue culture plates, in the presence of serial three-fold dilutions of test compounds or medium containing the same concentration of DMSO as in the test samples at each dilution point. The cultures were then supplemented with 10 μl/well MTT reagent for 4h and then with 0.1 ml/well solubilizing reagent for an additional 16 h. Optical density at 570 nm (OD570) was measured on a ThermoScan™ microplate reader (Molecular Devices, Menlo Park, Calif.). The data is presented as OD570 values versus concentration of the compounds. The results for PG763 (14-deoxy-14α-fluorotriptolide), compared with PG490 (triptolide) and a medium control, are given in FIG. 1.

The test system of data set [2] is IL-2 production in Jurkat cells. Description: IL-2 production assay (immunosuppression assay). In kind it is cell-based, human. The settings on record: for fold less potent than triptolide in the immunosuppression assay: inhibition of IL-2 production in Jurkat cells, relative to triptolide (FIGS. 4A-B). The method, then:
Test samples were diluted to 1 mM in complete tissue culture medium. Aliquots were placed in microculture plates that had been coated with anti-CD3 antibody (used to stimulate the production of IL-2 by Jurkat cells), and serial dilutions were prepared so that the final concentration would encompass the range of 0.001 to 10,000 nM in log increments. Cells from an exponentially expanding culture of Jurkat human T cell line (#TIB-152 obtained from American Type Culture Collection, Manassas, Va.) were harvested, washed once by centrifugation, re-suspended in complete tissue culture medium, and diluted to a concentration of 2×10^6 cells/ml. A volume of 50 μl of Jurkat cells (1×10^5 cells) was added to wells containing 100 μl of the diluted compounds, 50 μl of PMA (10 ng/ml) was added to each well, and the plates were incubated at 37° C. in a 5% CO2 incubator. After 24 hours, the plates were centrifuged to pellet the cells, 150 μl of supernatant was removed from each well, and the samples were stored at −20° C. The stored supernatants were analyzed for human IL-2 concentration using the Luminex 100 (Luminex Corporation, Austin, Tex.), Luminex microspheres coupled with anti-IL-2 capture antibody, and fluorochrome-coupled anti-IL-2 detection antibody. The data were expressed as pg/ml of IL-2.
The data were plotted as the concentration of compound versus IL-2 concentration. The results for PG763 (14-deoxy-14α-fluorotdptolide), compared with PG490 (triptolide) and a solvent control, are given in FIG. 2. Comparative data for other 14-substituted triptolides, 14α-hydroxytriptolide (also referred to as epitriptolide; designated PG524) and 14β-(methylthio)methyltriptolide (designated PG691), compared with PG490 (triptolide), are given in FIGS. 4A-B.

Data set [3] deals with Jurkat human T lymphoma cell line. Description: Annexin V apoptosis assay. Format: cell-based. The conditions noted are these: induction of apoptosis in Jurkat cells, 24 hours, relative to triptolide (FIGS. 3A-B). The method, then:
Test samples were diluted to 1 mM in complete tissue culture medium (RPMI 1640 medium plus 5% heat-inactivated fetal calf serum, 1% HEPES, 1% pen/strep, 1% glutamine). Aliquots were placed in microculture plates and serial dilutions were prepared so that the final concentration would encompass the range of 2 to 6,000 nM with half-log increments. Cells from an exponentially expanding culture of the Jurkat human T lymphoma cell line (#TIB-152 obtained from American Type Culture Collection, Manassas, Va.) were harvested, washed once by centrifugation, re-suspended in complete tissue culture medium, and further diluted to a concentration of 1×10^6 cells/ml. A volume of 100 μl of the cells (1×10^5 cells) was added to wells containing 100 μl of the diluted compounds, and the plates were incubated at 37° C. in a 5% CO2 incubator.
After 24 hours, the plates were centrifuged to pellet the cells, and the cells were washed twice with 2% heat-inactivated fetal calf serum in PBS. […] The contents of the wells were individually transferred into test tubes, and apoptosis was analyzed using a FACSCalibur flow cytometer (BD Immunocytometry Systems, San Jose, Calif.). Cells positive for Annexin V binding were considered to be apoptotic, and the data were calculated as percent apoptotic cells. […]

For `CC(C)[C@]12O[C@H]1[C@@H]1O[C@]13[C@]1(O[C@H]1C[C@H]1C4=C(CC[C@@]13C)C(=O)OC4)[C@H]2F` [PG763, 14-deoxy-14α-fluorotriptolide], in data set [1], the “cytotoxicity in Jurkat cells” value is “nearly equivalent to that of triptolide; also recorded: in a dose-dependent manner, at concentrations comparable to those in similar assays using triptolide”. Further, the “inhibition of IL-2 production in Jurkat cells” value in data set [2] (anti-CD3 and PMA stimulated, 24 hours, in comparison with triptolide (FIG. 2)) was “nearly equivalent to that of triptolide; also recorded: in a dose-dependent manner, at concentrations comparable to those in similar assay using triptolide”.

Regarding `CSCOC1C2(C(C)C)OC2C2OC23C2(C)CCC4=C(COC4=O)C2CC2OC213` (stereo not drawn) [14β-(methylthio)methyl triptolide, 14-β-(methylthio)methyl triptolide], in data set [2], the “fold less potent than triptolide in the immunosuppression assay” value is “approximately 60 fold”. Besides, the “fold less potent than triptolide in the apoptosis assay” value in data set [3] is roughly 40 fold.

For the compound `CC(C)[C@]12O[C@H]1[C@@H]1O[C@]13[C@]1(O[C@H]1C[C@H]1C4=C(CC[C@@]13C)C(=O)OC4)[C@H]2O` [epitriptolide, 14-α-hydroxytriptolide], the “fold less potent than triptolide in the immunosuppression assay” value in data set [2] is on record as “approximately 30 fold”. Besides, the “fold less potent than triptolide in the apoptosis assay” value in data set [3] was roughly 25 fold.
